# Read-outs that look alike come from different tables or passages of the source.
# Assays:
# hair loss = details: clinical studies, taken by mouth; cited from earlier work
# scalp hair growth = test: Local application of insulin to the scalp, alone or before other agents, hair growth; type: in vivo, human
# Source text: Wash scalp with mild shampoo. Avoid using hair conditioners which may coat the bald skin resulting in prevention of the effective absorption of insulin. This is followed by application of oxidant. In our invention, we can use any one of the above described antioxidants, but in this instance we are discussing povidine iodine. […] Allow it to dry, and follow it by application of insulin by a spray or swab repeatedly 2-3 times as it dries.
# Apply the Wash dressing on the wound if need be.
# Step 4: Apply selected hair growth therapeutic agent, which includes prostaglandin and its derivatives which are already in the market and FDA approved.
# We recommend the use of tocotrienols after insulin application so that this therapeutic agent can easily permeate the hair follicle and promote the hair growth.
# Apply selected hair growth therapeutic agent using PGF 2α, and analogues.
# [1] = tested on: cultured human hair follicles; details: cited from earlier work; for preventing hair follicles from entering into a catagen-like state, compared with insulin / rates of hair follicle growth compared with 10 micrograms/ml insulin: IGF-I 10 ng/ml, IGF-II 100 ng/ml; for effect on hair follicle growth: in the presence of 10 micrograms/ml insulin
# [2] = cited from earlier work
# [3] = tested on: hair loss due to chemotherapy; test: Insulin spray on the scalp during chemotherapy; type: in vivo, human; details: 3-5 units of insulin diluted in normal saline or ringers lactate, cancer patients
# Description: It is this experience that leads us to this invention. […] We also experimented with application of cold pack to the scalp 15 minutes after insulin spray, which caused the constriction of BV and reduced the amount of chemotherapy agent reaching the scalp hair which causes havoc on the hair root cells. These three simple methods reduced the profound loss of scalp hair to chemotherapy toxic effects in cancer patients during chemotherapy treatment. Insulin applied directly to the scalp had preventive effect on hair loss due to chemotherapy.
# [4] = Source text: If one develops hypoglycemic symptoms due to any number of reasons, drink a sugar drink, eat a candy, or fruit cocktail.
# [5] = tested on: MCF-7 human breast cancer cells; details: MCF-7 cells, insulin plus methotrexate; cited from earlier work
# wound healing = test: Local insulin on ulcers, tooth extraction wounds and gums; type: in vivo, human
# Source text: We have used insulin for more than a decade to enhance the effectiveness of locally injected therapeutic agents specially cancers with chemotherapeutic agents with remarkable results. Our research data also supports that the insulin spray on indolent ulcers anywhere in the body, including the oral (gums) and nasal cavity.
# [6] = in the absence of insulin, 0.01-100 ng/ml
compound,measurement,setting,value
CC(C)(C)NC(=O)[C@H]1CC[C@H]2[C@@H]3CC[C@H]4NC(=O)C=C[C@]4(C)[C@H]3CC[C@]12C [Finasteride],share of men in whom hair loss stopped,hair loss,83%
COc1cc(/C=C/C(=O)CC(=O)/C=C/c2ccc(O)c(OC)c2)ccc1O [curcumin],use as antioxidant for hair growth after application of insulin,scalp hair growth; applied after insulin,used effectively
IGF-I: Insulin-like growth factor I,"preventing hair follicles from entering into a catagen-like state, compared with insulin",[1],more potent than insulin
same,rates of hair follicle growth compared with 10 micrograms/ml insulin,[1],identical
same,stimulation of hair follicle growth,[1]; [6],stimulated hair follicle growth in a dose-dependent manner
same,concentration stimulating maximum rates of hair follicle growth,[1]; in the absence of insulin,10 ng/mL
same,effect on hair follicle growth,[1],no significant effect
IGF-II: Insulin-like growth factor II,"preventing hair follicles from entering into a catagen-like state, compared with insulin",[1],more potent than insulin
same,rates of hair follicle growth compared with 10 micrograms/ml insulin,[1],unable to stimulate hair follicle growth to the same extent as insulin
same,stimulation of hair follicle growth,[1]; [6],stimulated hair follicle growth in a dose-dependent manner
same,concentration stimulating maximum rates of hair follicle growth,[1]; in the absence of insulin,100 ng/mL
same,effect on hair follicle growth,[1],no significant effect
Regular (R) humulin or novolin: Short-acting insulin,Duration of action,[2]; in vivo,5 to 8 h
same,Onset of action,[2]; in vivo,30 to 60 min
same,Peak effect,[2]; short-acting insulin,2 to 5 h
growth hormone: growth hormone (somatotrophin),influence on hair follicle and hair growth,[1]; growth hormone alone,no direct influence
insulin: hormone secreted by beta cells in the islets of Langerhans in the pancreas,concentration giving maximum rates of hair follicle growth,[1]; follicles maintained in medium containing insulin,10 micrograms/ml
same,stimulation of hair follicle growth,[1]; over the range of 0.01 to 100 micrograms/ml,stimulated hair follicle growth in a dose-dependent manner
same,hair loss during chemotherapy,[3],reduced the hair loss dramatically
same,hypoglycemia,[4]; after application of insulin to the scalp,none of our cases developed hypoglycemia
same,side effect after application,[4]; insulin preparations on the scalp,itching and redness
same,darkening of the skin,[4]; simple insulin applied to enhance hair growth,did not result in any appreciable darkening of the skin
same,increase of the cytotoxic effect of methotrexate,[5],"up to 10,000 fold"
same,gum diseases (periodontitis),wound healing; insulin and antibiotics such as doxycycline locally on the gums,eliminated gum diseases
same,healing after teeth extraction,"wound healing; insulin soaked cotton swabs, 1-3-5 units in normal saline",rapid healing with reduced pain
same,wound healing,wound healing; insulin spray on indolent ulcers,accelerated wound healing
same,hair follicle transplant healing and growth,"scalp hair growth; insulin applied with hair follicle transplant, no second agent",rapid wound healing along with uptake and growth of hair follicle transplant
same,hair growth,scalp hair growth; insulin on its own,enhances the hair growth

# From patent US20100172865A1, “METHODS OF ENHANCING HAIR GROWTH” (priority 2010, published 2010)
